Experimental data published in patent publication US4526989A, “1,4-Bis (substituted-amino)-5,8-dihydroxy-anthraquinones and leuco bases thereof” (priority 1979, dated 1985).
Where two headings read alike, the source gives them in different places.

What was measured:
[1] = system: lymphocytic leukemia P388; test: Lymphocytic leukemia P388 test (intraperitoneal administration); type: in vivo, DBA/2 mice; details: days 1, 5 and 9
In short: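 DBA/2 mice, single sex, 5-6 per group, inoculated i.p. with 10^6 P388 leukemia cells. Compounds given i.p. at various doses on days 1, 5 and 9; survival followed 30 days, reporting median survival time and treated/control (T/C) survival ratio.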

[2] = system: lymphocytic leukemia P388; test: Lymphocytic leukemia P388 test (oral drug administration); type: in vivo, DBA/2 mice; details: for T/C × 100: efficacy ≥125%
Experimental: The animals used are DBA/2 mice all of one sex, weighing a minimum of 17 g. and all within a 3 gram weight range. There are 5 or 6 animals per test group. The tumor transplant is by intraperitoneal injection of 0.1 ml. of dilute ascitic fluid containing 10^6 cells of lymphocytic leukemia P388. The test compounds are administered intraperitoneally on days one, 5 and 9 (relative to tumor inoculation) at various doses. The animals are weighed and survivors are recorded on a regular basis for 30 days. The median survival time and the ratio of survival time for treated (T)/control (C) animals are calculated. […] The results of this test with representative compounds of the present invention appear in Table I. The criterion for efficacy is T/C×100≥125%.
The procedure used is the same as for the previously described test for lymphocytic leukemia P388 except that the test compounds are administered orally at various doses rather than intraperitoneally. The criterion for efficacy is T/C×100≥125%.

[3] = system: melanotic melanoma B16; test: Melanotic Melanoma B16 test; type: in vivo, C57BC/6 mice; details: for response vs control in vivo at 3 mg/kg / response vs control in vivo at 6 mg/kg / response vs control in vivo at 12 mg/kg / response vs control in vivo at 25 mg/kg: Mus musculus, ip, read-out: T/C × 100
In short: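 C57BC/6 mice (10 per group) were implanted i.p. with B16 melanoma homogenate, then dosed i.p. on days 1–9 at various doses.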

[4] = system: Ridgway Osteogenic Sarcoma; test: Ridgway Osteogenic Sarcoma; type: in vivo, AKD2 F1 /J mice; details: for % Inhibition Tumor Growth / % Showing 50% Tumor Regression / No. Without Tumors/No. Survivors / Tumor: 7 days after therapy stopped; for Median Survival / T/C: 63 days after therapy stopped
Experimental: The animals used are AKD2 F1 /J mice, all of the same sex, weighing a minimim of 17 g. and all within a three-gram weight range. There are normally 8 animals per test group. The tumor is administered subcutaneously by trocar as five 2-mm. fragments per mouse. The test compounds are administered intraperitoneally every 4 days for a total of 6 inoculations beginning on day 15 (relative to tumor inoculation) at various doses. The animals are weighed and survivors are recorded on a regular basis for 90 days. The regression of tumors is recorded in all test animals.

[5] = Storage behaviour of solid; type: physicochemical
[6] = Mus musculus, P388, ip, 3 mg./kg. i.p., efficacy ≥125%, read-out: T/C × 100
[7] = Mus musculus, P388, ip, 6 mg./kg. i.p., efficacy ≥125%, read-out: T/C × 100
[8] = Mus musculus, P388, ip, 12 mg./kg. i.p., efficacy ≥125%, read-out: T/C × 100
[9] = Mus musculus, P388, ip, 25 mg./kg. i.p., efficacy ≥125%, read-out: T/C × 100
[10] = Mus musculus, P388, ip, 50 mg./kg. i.p., efficacy ≥125%, read-out: T/C × 100
[11] = 3 mg./kg. i.p., days 1 through 9
[12] = 6 mg./kg. i.p., days 1 through 9
[13] = 12 mg./kg. i.p., days 1 through 9
[14] = 25 mg./kg. i.p., days 1 through 9
[15] = 6 mg./kg. i.p., days 1 through 9, efficacy ≥125%
[16] = 12 mg./kg. i.p., days 1 through 9, efficacy ≥125%
[17] = 25 mg./kg. i.p., days 1 through 9, efficacy ≥125%

Q: Which results are given for `CN(C)CCNC1=C2C(=O)c3c(O)ccc(O)c3C(=O)C2=C(NCCN(C)C)CC1` [Leuco-1,4-bis[(2-dimethylaminoethyl)amino]-5,8-dihydroxy-anthraquinone]?
A: Median Survival Time ([1]; 1.5 mg./kg. i.p.): 13.0 days; Median Survival Time ([1]; 3 mg./kg. i.p.): 14.5 days; Median Survival Time ([1]; 6 mg./kg. i.p.): 16.0 days; Median Survival Time ([1]; 12 mg./kg. i.p.): 17.5 days; Median Survival Time ([1]; 25 mg./kg. i.p.): 19.0 days; Median Survival Time ([1]; 50 mg./kg. i.p.): 24.5 days; Median Survival Time ([1]; 100 mg./kg. i.p.): 24.5 days; response vs control in vivo at 1.5 mg/kg ([1]; Mus musculus, P388, ip, 1.5 mg./kg. i.p., efficacy ≥125%, read-out: T/C × 100): 130%; response vs control in vivo at 3 mg/kg [1, 6]: 145%; response vs control in vivo at 6 mg/kg [1, 7]: 160%; response vs control in vivo at 12 mg/kg [1, 8]: 175%; response vs control in vivo at 25 mg/kg [1, 9]: 190%; response vs control in vivo at 50 mg/kg [1, 10]: 245%; response vs control in vivo at 100 mg/kg ([1]; Mus musculus, P388, ip, 100 mg./kg. i.p., efficacy ≥125%, read-out: T/C × 100): 245%; Median Survival Time ([2]; 12 mg./kg. oral): 12.5 days; T/C × 100 ([2]; 12 mg./kg. oral): 125%; Median Survival Time ([2]; 25 mg./kg. oral): 13.5 days; T/C × 100 ([2]; 25 mg./kg. oral): 135%; Median Survival Time ([2]; 50 mg./kg. oral): 16.0 days; T/C × 100 ([2]; 50 mg./kg. oral): 160%; Median Survival Time [3, 11]: 21.0 days; Median Survival Time [3, 12]: 21.5 days; Median Survival Time [3, 13]: 23.0 days; Median Survival Time [3, 14]: 25.0 days; response vs control in vivo at 3 mg/kg ([3]; 3 mg./kg. i.p., days 1 through 9, efficacy ≥125%): 127%; response vs control in vivo at 6 mg/kg [3, 15]: 130%; response vs control in vivo at 12 mg/kg [3, 16]: 139%; response vs control in vivo at 25 mg/kg [3, 17]: 151%

Q: With `CN(C)CCNc1ccc(NCCN(C)C)c2c1C(=O)c1c(O)ccc(O)c1C2=O` [1,4-Bis[(2-dimethylaminoethyl)amino]-5,8-dihydroxyanthraquinone] as the compound, how does the “Median Survival Time” value ([1]; 3 mg./kg. i.p.) read?
A: 19.5 days

Q: What about the “Median Survival Time” value ([1]; 6 mg./kg. i.p.) of the same compound?
A: 21.0 days

Q: What about the “Median Survival Time” value ([1]; 12 mg./kg. i.p.) of the same compound?
A: 23.0 days

Q: And the “Median Survival Time” value ([1]; 25 mg./kg. i.p.)?
A: 20.5 days

Q: And the “Median Survival Time” value ([1]; 50 mg./kg. i.p.)?
A: 25.0 days

Q: And the response vs control in vivo at 3 mg/kg [1, 6]?
A: 217%

Q: What about the response vs control in vivo at 6 mg/kg [1, 7] of the same compound?
A: 233%

Q: What about the response vs control in vivo at 12 mg/kg [1, 8] of the same compound?
A: 256%

Q: What about the response vs control in vivo at 25 mg/kg [1, 9] of the same compound?
A: 228%

Q: And the response vs control in vivo at 50 mg/kg [1, 10]?
A: 278%

Q: And the “Median Survival Time” value ([2]; 3 mg./kg. oral)?
A: 15.0 days

Q: What about the “T/C × 100” value ([2]; 3 mg./kg. oral) of the same compound?
A: 130%

Q: What about the “Median Survival Time” value ([2]; 6 mg./kg. oral) of the same compound?
A: 16.0 days

Q: What about the “T/C × 100” value ([2]; 6 mg./kg. oral) of the same compound?
A: 139%

Q: What about the “Median Survival Time” value ([2]; 12 mg./kg. oral) of the same compound?
A: 16.0 days

Q: What about the “T/C × 100” value ([2]; 12 mg./kg. oral) of the same compound?
A: 139%

Q: What about the “Median Survival Time” value [3, 11] of the same compound?
A: 25.5 days

Q: And the “Median Survival Time” value [3, 12]?
A: 27.0 days

Q: And the “Median Survival Time” value [3, 13]?
A: 28.5 days

Q: And the “Median Survival Time” value [3, 14]?
A: 24.5 days

Q: What about the response vs control in vivo at 3 mg/kg [3] of the same compound?
A: 142%

Q: What about the response vs control in vivo at 6 mg/kg [3, 15] of the same compound?
A: 150%

Q: And the response vs control in vivo at 12 mg/kg [3, 16]?
A: 158%

Q: And the response vs control in vivo at 25 mg/kg [3, 17]?
A: 136%

Q: What about the “% Inhibition Tumor Growth” value ([4]; 6 mg./kg. i.p.) of the same compound?
A: 19%

Q: What about the “% Showing 50% Tumor Regression” value ([4]; 6 mg./kg. i.p.) of the same compound?
A: 0%

Q: And the “No. Without Tumors/No. Survivors” value ([4]; 6 mg./kg. i.p.)?
A: 0/6

Q: What about the Tumor ([4]; 6 mg./kg. i.p.) of the same compound?
A: 960 (mm.) 2

Q: And the “Median Survival” value ([4]; 6 mg./kg. i.p.)?
A: 57.5 days

Q: And the T/C ([4]; 6 mg./kg. i.p.)?
A: 129%

Q: What about the “% Inhibition Tumor Growth” value ([4]; 12 mg./kg. i.p.) of the same compound?
A: 61%

Q: And the “% Showing 50% Tumor Regression” value ([4]; 12 mg./kg. i.p.)?
A: 0%

Q: And the “No. Without Tumors/No. Survivors” value ([4]; 12 mg./kg. i.p.)?
A: 0/3

Q: And the Tumor ([4]; 12 mg./kg. i.p.)?
A: 470 (mm.) 2

Q: What about the “Median Survival” value ([4]; 12 mg./kg. i.p.) of the same compound?
A: 37 days

Q: And the T/C ([4]; 12 mg./kg. i.p.)?
A: 83%

Q: What about the “% Inhibition Tumor Growth” value ([4]; 25 mg./kg. i.p.) of the same compound?
A: 41%

Q: What about the “% Showing 50% Tumor Regression” value ([4]; 25 mg./kg. i.p.) of the same compound?
A: 0%

Q: What about the “No. Without Tumors/No. Survivors” value ([4]; 25 mg./kg. i.p.) of the same compound?
A: 0/8

Q: And the Tumor ([4]; 25 mg./kg. i.p.)?
A: 653 (mm.) 2

Q: What about the “Median Survival” value ([4]; 25 mg./kg. i.p.) of the same compound?
A: 78 days

Q: And the T/C ([4]; 25 mg./kg. i.p.)?
A: 175%

Q: What about the “% Inhibition Tumor Growth” value ([4]; 50 mg./kg. i.p.) of the same compound?
A: 78%

Q: What about the “% Showing 50% Tumor Regression” value ([4]; 50 mg./kg. i.p.) of the same compound?
A: 25%

Q: And the “No. Without Tumors/No. Survivors” value ([4]; 50 mg./kg. i.p.)?
A: 2/6

Q: And the Tumor ([4]; 50 mg./kg. i.p.)?
A: 263 (mm.) 2

Q: What about the “Median Survival” value ([4]; 50 mg./kg. i.p.) of the same compound?
A: 92.5 days

Q: And the T/C ([4]; 50 mg./kg. i.p.)?
A: 208%

Q: And the “% Inhibition Tumor Growth” value ([4]; 100 mg./kg. i.p.)?
A: 96%

Q: And the “% Showing 50% Tumor Regression” value ([4]; 100 mg./kg. i.p.)?
A: 28%

Q: And the “No. Without Tumors/No. Survivors” value ([4]; 100 mg./kg. i.p.)?
A: 2/5

Q: What about the Tumor ([4]; 100 mg./kg. i.p.) of the same compound?
A: 52 (mm.) 2

Q: What about the “Median Survival” value ([4]; 100 mg./kg. i.p.) of the same compound?
A: 48 days

Q: What about the T/C ([4]; 100 mg./kg. i.p.) of the same compound?
A: 108%

Q: With `O=C1C2=C(NCCNCCNCCO)CCC(NCCNCCNCCO)=C2C(=O)c2c(O)ccc(O)c21` [Example 33, Leuco-1,4-bis[2-[2-(2-hydroxyethylamino)ethylamino]ethylamino]-5,8-dihydroxyanthraquinone] as the compound, how does the “storage behaviour of solid” value ([5]; stored at 25° C.) read?
A: coalesces into a solid cake

Q: What about the “storage behaviour of solid” value ([5]; stored at -25° C.) of the same compound?
A: remains granular
